# Patent publication US5739129A, “CCK or gastrin modulating 5-heterocyclic-1, 5 benzodiazepines” (Glaxo Wellcome Inc., priority 1994, dated 1998)
# System: guinea pig gall bladder
# Assay: Guinea pig gall bladder assay (contraction of isolated gallbladder rings)
# Type: cell-based
# Settings: Cavia porcellus, compounds tested at 1 μM, minimum of three determinations, read-out: Contraction (% sulfated CCK-8 maximal response)
# Source text: GUINEA PIG GALL BLADDER ASSAY Tissue Preparation: Gallbladders were removed from guinea pigs sacrificed by cervical dislocation. The isolated gallbladders were cleaned of adherent connective tissue and cut into two rings from each animal (2-4 mm in length). The rings were subsequently suspended in organ chambers containing a physiological salt solution of the following composition (mM): NaCl (118.4); KCl (4.7); MgSO4 ×H2 O (1.2); CaCl2 ×2H2 O (2.5); […] (1.2); NaHCO3 (25) and dextrose (11.1). The bathing solution was maintained at 37° C. and aerated with 95% O2 /5%CO2. Tissues were connected via gold chains and stainless steel mounting wires to isometric force displacement transducers (Grass, Model FT03 D). Responses were then recorded on a polygraph (Grass, Model 7E). […] Assay: Rings were gradually stretched (over a 120 min. period) to a basal resting tension of 1 gm which was maintained throughout the experiment. During the basal tension adjustment period, the rings were exposed to acetylcholine (ACH, 10^-6 M) four times to verify tissue contractility. The tissues were then exposed to a submaximal dose of sulfated CCK-8 (Sigma, 3×10^-9 M). After obtaining a stable response, the tissues were washed out 3 times rapidly and every 5 to 10 minutes for 1 hour to reestablish a stable baseline. Compounds were dissolved in dimethylsulfoxide (DMSO) then diluted with water and assayed via a cumulative concentration-response curve to test compound (10^-11 to 3×10^-6 M) followed by a concentration-response curve to sulfated CCK-8 (10^-10 to 10^-6 M) in the presence of the highest dose of the test compound. As a final test, ACH (10 mM) was added to induce maximal contraction. A minimum of three determinations of activity were made for each test compound. The compounds were tested at a concentration of 1 μM and the results expressed as % sulfated CCK-8 maximal response.
row,Structure (SMILES),Emax at 1 µM
1,"COc1ccc(N(C(=O)CN2C(=O)C(NC(=O)c3cc4ccccc4[nH]3)C(=O)N(c3ccccn3)c3ccccc32)C(C)C)cc1 (single isomer, unassigned) [Example 3, (+) or (-) 1H-Indole-2-carboxylic acid {1-[Isopropyl-(4-methoxy-phenyl)-carbamoylmethyl]-2,4-dioxo-5-pyridin-2-yl-2,3,4,5-tetrahydro-1H-benzo[b][1,4]diazepin-3-yl}-amide]",83%
2,"COc1ccc(N(C(=O)CN2C(=O)C(NC(=O)c3cc4ccccc4[nH]3)C(=O)N(c3cccnc3)c3ccccc32)C(C)C)cc1 (single isomer, unassigned) [Example 14, (+) or (-) 1H-Indole-2-carboxylic acid [I-[isopropyl-(4-methoxyphenyl)-carbamoylmethyl]-2,4-dioxo-5-pyridin-3-yl-2,3,4,5-tetrahydro-1H-benzo[b][1,4]diazepin-3-yl]amide]",84%
3,"COc1ccc(N(C(=O)CN2C(=O)C(NC(=O)Nc3ccccc3)C(=O)N(c3ccccn3)c3ccccc32)C(C)C)cc1 (stereo not shown) [Example 1, 2-[2,4-Dioxo-3-(3-phenyl-ureido)-5-pyridin-2-yl-2,3,4,5-tetrahydrobenzo[b][1,4]diazepin-1-yl]-N-isopropyl-N-(4-methoxy-phenyl)-acetamide]",91%
4,"COc1ccc(N(C(=O)CN2C(=O)C(NC(=O)c3cc4ccccc4[nH]3)C(=O)N(c3ccccn3)c3ccccc32)C(C)C)cc1 (stereo not shown) [Example 2, 1H-Indole-2-carboxylic acid {1-[Isopropyl-(4-methoxy-phenyl)-carbamoylmethyl]-2,4-dioxo-5-pyrdin-2-yl-2,3,4,5-tetrahydro-1H-benzo[b][1,4]diazepin-3-yl}-amide]",64%
5,"COc1ccc(N(C(=O)CN2C(=O)C(NC(=O)c3cc4ccccc4[nH]3)C(=O)N(c3ncccn3)c3ccccc32)C(C)C)cc1 (stereo not shown) [Example 5, 1H-Indole-2-carboxylic acid {1-[Isopropyl-(4-methoxy-phenyl)-carbamoylmethyl]-2,4-dioxo-5-pyrimidin-2-yl-2,3,4,5-tetrahydro-1H-benzo[b][1,4]diazepin-3-yl}-amide]",51%
6,"COc1ccc(N(C(=O)CN2C(=O)C(NC(=O)c3cc4ccccc4[nH]3)C(=O)N(c3c(C)nn(C)c3C)c3ccccc32)C(C)C)cc1 (stereo not shown) [Example 6, 1H-Indole-2-carboxylic acid [1-[isopropyl-(4-methoxy-phenyl)-carbamoylmethyl]-2,4-dioxo-5-(1,3,5-trimethyl-1H-pyrazol-4-yl)-2,3,4,5-tetrahydro-1H-benzo[b][1,4]diazepin-3-yl]-amide]",32%
7,"COc1ccc(N(C(=O)CN2C(=O)C(NC(=O)c3cc4ccccc4[nH]3)C(=O)N(c3cccnc3)c3ccccc32)C(C)C)cc1 (stereo not shown) [Example 7, 1H-Indole-2-carboxylic acid {1[isopropyl-(4-methoxy-phenyl)-carbamoylmethyl]-2,4-dioxo-5-pyridin-3-yl-2,3,4,5-tetrahydro-1H-benzo[b][1,4]diazepin-3-yl}-amide]",77%
8,"COc1ccc(N(C(=O)CN2C(=O)C(NC(=O)Nc3ccccc3)C(=O)N(c3cccnc3)c3ccccc32)C(C)C)cc1 (stereo not shown) [Example 8, 2-[2,4-dioxo-3-(3-phenyl-ureido)-5-pyridin-3-yl-2,3,4,5-tetrahydrobenzo[b][1,4]diazepin-1-yl]-N-isopropyl-N-(4-methoxy-phenyl) acetamide]",81%
9,"COc1ccc(N(C(=O)CN2C(=O)C(NC(=O)Nc3cccc(C(=O)O)c3)C(=O)N(c3cccnc3)c3ccccc32)C(C)C)cc1 (stereo not shown) [Example 10, 3-(3-{1-[isopropyl-(4-methoxy-phenyl)-carbamoylmethyl]-2,4-dioxo-5-pyridin-3-yl-2,3,4,5-tetrahydro-1H-benzo[b][1,4]diazepin-3-yl}-ureido)-benzoic acid]",83%
10,"COc1ccc(N(C(=O)CN2C(=O)C(NC(=O)c3cc4ccccc4[nH]3)C(=O)N(c3ccncc3)c3ccccc32)C(C)C)cc1 (stereo not shown) [Example 11, 1H-Indole-2-carboxylic acid {1-[Isopropyl-(4-methoxy-phenyl)-carbamoylmethyl]-2,4-indoledioxo-5-pyridin4-yl-2,3,4,5,5a, 9a-hexahydro-1H-benzo[b][1,4]diazepin-3-yl}-amide]",67%
11,"COc1ccc(N(C(=O)CN2C(=O)C(NC(=O)Nc3cccc(C(=O)O)c3)C(=O)N(c3cccnc3)c3cc(F)ccc32)C(C)C)cc1 (stereo not shown) [Example 13, 3-(3-{7-Fluoro-1-[isopropyl-(4-methoxy-phenyl)-carbamoylmethyl]-2,4-dioxo-5-pyridin-3-yl-2,3,4,5-tetrahydro-1H-benzo[b][1,4]diazepin-3-yl}-ureido)-benzoic acid]",96%

# Same assay, conditions: compounds tested at 1 μM, minimum of three determinations
row,Structure (SMILES),Contraction (% sulfated CCK-8 maximal response)
1,"COc1ccc(N(C(=O)CN2C(=O)C(NC(=O)c3cc4ccccc4[nH]3)C(=O)N(c3ccccn3)c3ccccc32)C(C)C)cc1 (single isomer, unassigned) [Example 4, (+) or (-) 1H-Indole-2-carboxylic acid {1-[Isopropyl-(4-methoxy-phenyl)-carbamoylmethyl]-2,4-dioxo-5-pyridin-2-yl-2,3,4,5-tetrahydro-1H-benzo[b][1,4]diazepin-3-yl}-amide]",67%
2,"COc1ccc(N(C(=O)CN2C(=O)C(NC(=O)c3cc4ccccc4[nH]3)C(=O)N(c3cccnc3)c3ccccc32)C(C)C)cc1 (single isomer, unassigned) [Example 15, (+) or (-) 1H-Indole-2-carboxylic acid [I-[isopropyl-(4-methoxyphenyl)-carbamoylmethyl]-2,4-dioxo-5-pyridin-3-yl-2,3,4,5-tetrahydro-1H-benzo[b][1,4]diazepin-3-yl]amide]",93%
